Biological target: HR1-1 peptide (HR1 domain of LASV GP2) (Lassa virus, UniProt P08669)
Assay: biochemical
Format: binding

Sequence of HR1-1 peptide (HR1 domain of LASV GP2) (P08669 296-345 limits assumed): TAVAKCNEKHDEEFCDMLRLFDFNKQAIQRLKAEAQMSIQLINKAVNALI

| Structure (SMILES) | kon [M⁻¹ s⁻¹] | koff (read-out: Kdis) [s⁻¹] | Binding to HR1-1 peptide (in words) | Response (concentration 3.75 μM) [nm] | Response (concentration 7.5 μM) [nm] | Response (concentration 15 μM) [nm] | Response (concentration 30 μM) [nm] |
| --- | --- | --- | --- | --- | --- | --- | --- |
| CC[C@H](C)[C@H](NC(=O)[C@H](CC(=O)O)NC(=O)[C@H](CC(=O)O)NC(=O)[C@H](CO)NC(=O)[C@H](Cc1ccccc1)NC(=O)[C@H](Cc1c[nH]cn1)NC(=O)[C@@H](N)[C@@H](C)O)C(=O)N[C@@H](CCC(=O)O)C(=O)N[C@@H](CCC(N)=O)C(=O)N[C@@H](CCC(N)=O)C(=O)N[C@@H](C)C(=O)N[C@@H](CC(=O)O)C(=O)N[C@@H](CC(N)=O)C(=O)N[C@@H](CCSC)C(=O)N[C@H](C(=O)N[C@H](C(=O)N[C@@H](CCC(=O)O)C(=O)N[C@@H](CCSC)C(=O)N[C@@H](CC(C)C)C(=O)N[C@@H](CCC(N)=O)C(=O)N[C@@H](CCCCN)C(=O)N[C@@H](CCC(=O)O)C(=O)N[C@@H](Cc1ccc(O)cc1)C(=O)N[C@@H](CCSC)C(=O)N[C@@H](CCC(=O)O)C(=O)O)[C@@H](C)O)[C@@H](C)CC [HR2-3] | 1420 | 0.0823 |  |  |  |  |  |
| CC[C@H](C)[C@H](NC(=O)[C@H](CC(=O)O)NC(=O)[C@H](CC(=O)O)NC(=O)[C@H](CO)NC(=O)[C@H](Cc1ccccc1)NC(=O)[C@H](Cc1c[nH]cn1)NC(=O)[C@@H](NC(=O)[C@H](CCC(=O)O)NC(=O)[C@H](CC(N)=O)NC(=O)[C@H](CC(C)C)NC(=O)[C@H](Cc1ccc(O)cc1)NC(=O)[C@@H](N)CO)[C@@H](C)O)C(=O)N[C@@H](CCC(=O)O)C(=O)N[C@@H](CCC(N)=O)C(=O)N[C@@H](CCC(N)=O)C(=O)N[C@@H](C)C(=O)N[C@@H](CC(=O)O)C(=O)N[C@@H](CC(N)=O)C(=O)N[C@@H](CCSC)C(=O)N[C@H](C(=O)N[C@H](C(=O)N[C@@H](CCC(=O)O)C(=O)N[C@@H](CCSC)C(=O)N[C@@H](CC(C)C)C(=O)N[C@@H](CCC(N)=O)C(=O)N[C@@H](CCCCN)C(=O)N[C@@H](CCC(=O)O)C(=O)N[C@@H](Cc1ccc(O)cc1)C(=O)N[C@@H](CCSC)C(=O)N[C@@H](CCC(=O)O)C(=O)N[C@@H](CCCNC(=N)N)C(=O)N[C@@H](CCC(N)=O)C(=O)NCC(=O)N[C@@H](CCCCN)C(=O)N[C@H](C(=O)N1CCC[C@H]1C(=O)N[C@@H](CC(C)C)C(=O)O)[C@@H](C)O)[C@@H](C)O)[C@@H](C)CC [HR2-2] |  |  | strongly bind | 0.0341 | 0.0743 | 0.0958 | 0.119 |

Reference: article PMC6700223 (Frontiers in Microbiology, 2019)
